Tests used:
Assay type in all cases: cell-based
P2X7 receptor [1] = target: T1, P2X7 receptor (Homo sapiens, UniProt Q99572); assay: Screen Quest Fluo-8 No Wash Calcium Assay (Bz-ATP evoked Ca2+ influx, FLIPR); parameters: hP2X7 (IC50; nM); other: hP2X7; HEK-293 cells stably transfected with P2X7 receptor, Bz-ATP at EC80, Fluo-8 NW; potency; conditions: hP2X7; HEK-293 cells stably transfected with P2X7 receptor, Bz-ATP at EC80, Fluo-8 NW; potency ranges A-D
T1 sequence (Q99572 1-595): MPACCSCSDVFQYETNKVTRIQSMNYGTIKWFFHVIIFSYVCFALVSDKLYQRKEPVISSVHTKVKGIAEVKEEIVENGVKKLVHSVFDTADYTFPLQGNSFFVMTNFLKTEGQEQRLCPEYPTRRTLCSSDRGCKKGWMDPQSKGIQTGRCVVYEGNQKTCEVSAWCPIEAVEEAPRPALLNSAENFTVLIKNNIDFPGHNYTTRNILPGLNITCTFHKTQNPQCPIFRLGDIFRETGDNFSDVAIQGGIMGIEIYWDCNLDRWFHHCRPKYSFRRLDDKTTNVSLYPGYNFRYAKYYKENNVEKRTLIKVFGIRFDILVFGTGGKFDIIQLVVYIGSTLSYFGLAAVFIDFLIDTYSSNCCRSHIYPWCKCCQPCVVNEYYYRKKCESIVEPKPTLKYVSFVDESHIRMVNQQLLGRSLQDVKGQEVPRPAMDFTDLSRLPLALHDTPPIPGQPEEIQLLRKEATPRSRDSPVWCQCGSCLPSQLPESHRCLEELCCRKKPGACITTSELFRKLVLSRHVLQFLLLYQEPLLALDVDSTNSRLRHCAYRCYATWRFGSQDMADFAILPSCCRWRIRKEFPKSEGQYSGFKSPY
How it was run: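 HEK-293 cells stably expressing P2X7 were loaded with Fluo-8 NW for 1 h at RT, then given compound, and 5 min later Bz-ATP at EC80. Fluorescence was read by FLIPR in low divalent cation buffer (0.3 mM Ca2+, 0 mM Mg2+). IC50 came from percent inhibition relative to reference antagonist A438079.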

P2X7 receptor [2] = target: T1, P2X7 receptor; assay: YO-PRO-1 uptake assay; parameters: expressed in transfected cells; conditions: HEK-293 cells stably transfected with P2X7 receptor; Bz-ATP EC80 (30 μM); Low Divalent Cation Assay Buffer
Source text: YO-PRO®-1 is a fluorescent DNA-binding dye with a MW of 374 Da (Molecular Probes®, cat. Y3603). This method is based upon the presumed ability of YO-PRO®-1 to enter through the dilated or “large pore form” of P2X7 receptor and to bind to intracellular DNA whereupon it increases many fold its fluorescence intensity. The dye ha an absorption spectrum compatible with excitation at 488 nm by argon laser sources and its emission wavelength is in the range of 515-575 nm. The aim of this assay was to validate the interaction of antagonists with P2X7 receptor using an alternative readout to Ca2+-sensitive fluorescent dyes.
HEK-293 cells stably transfected with P2X7 receptor were seeded overnight un growth medium at 20,000 cell/well in 384-well plate. 24 hours later, the medium was removed, the cells were washed with Low Divalent Cation Assay Buffer (0.3 mM Ca^2+ and 0 mM Mg^2+) and then pre-loaded with 20 μL/w of 5 μM YO-PRO®-1 dye.
FLIPRTETRA fluorescence measurement immediately started. Then 10 μL/w of test compounds and reference antagonist A438079 at 3×-concentration were injected with the FLIPRTETRA and the kinetic response over a period of five minutes was monitored. A second injection of 10 μL/w of 3× Bz-ATP EC80 (30 μM) was performed with the FLIPRTETRA and the signal of the emitted fluorescence was recorded for additional 60 minutes. All the experiment was carried out with a Low Divalent Cation Assay Buffer (0.3 mM Ca^2+ and 0 mM Mg^2+).
The effect of the test compounds was measured as percent inhibition vs the reference antagonist and IC50 values were calculated accordingly.

P2X7 receptor [3] = target: T1, P2X7 receptor; assay: Automated patch-clamp (QPatch16X) P2X7 channel assay; parameters: expressed in transfected cells; host or cells: HEK-293; conditions: HEK-293 cells expressing P2X7 channels; whole-cell, held at -80 mV; 100 microM BzATP; compound 1, 10, 100 and 1000 nM; read-out: Q-Patch (IC50)
How it was run: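 Whole-cell patch clamp was run at room temperature on HEK-293 cells expressing P2X7, held at −80 mV with CsF internal and pH 7.4 NaCl external solutions. Currents were evoked by 100 µM BzATP alone and then with compound at 1, 10, 100 and 1000 nM. Peak inward currents were normalized and fitted to a Hill equation to give IC50.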

Structure (SMILES)	IC50 (P2X7 receptor [1])	IC50 (P2X7 receptor [2])	IC50 (P2X7 receptor [3])
Cc1noc(C)c1Cc1noc(=O)n1CC1CCCCC1 [Example 210, 4-(cyclohexylmethyl)-3-[(dimethyl-1,2-oxazol-4-yl)methyl]-4,5-dihydro-1,2,4-oxadiazol-5-one]	200 to 1000 nM	184 nM	149 nM
Cc1noc(C)c1Cc1noc(=O)n1CC1CCC(F)(F)CC1 [Example 211, 4-[(4,4-difluorocyclohexyl)methyl]-3-[(dimethyl-1,2-oxazol-4-yl)methyl]-4,5-dihydro-1,2,4-oxadiazol-5-one]	< 200 nM	171 nM	119 nM

— US11623919B2, “Heterocyclic P2X7 antagonists” (AXXAM S.P.A., priority 2017, dated 2023)
